Results from patent US10028966B2 (Avalyn Pharma Inc., priority 2014, dated 2018).
Converted amounts (≈) assume the structure as drawn. Where two headings read alike, the source gives them in different places.

What was measured:
[1] = cited from earlier work; for AUC over 0-18 hours / Cmax: human, plasma (Rubino et al., 2009)
[2] = Co-solvent and surfactant effects on pirfenidone saturation solubility; type: physicochemical; settings: thermodynamic from solid;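 also: samples equilibrated by overnight agitation at ambient temperature, with solubility taken from the supernatant after undissolved solid was removed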
Experimental: Each sample was agitated at ambient temperature overnight. The samples were visually inspected and appearance recorded. Samples were centrifuged to sediment any un-dissolved material and the supernatant withdrawn via syringe through a 0.22 μm PVDF filter. […] The remaining filtered sample was split into three equal volumes in glass vials and placed at 25° C./60 RH, 40° C./75 RH and refrigeration. Samples are wrapped in aluminum foil to reduce light exposure. After the first night of incubation, samples are briefly visually inspected for any signs of discoloration or precipitate formation.

[3] = tested on: normal human pulmonary fibroblasts; assay: TGFβ1-induced fibroblast differentiation; type: cell-based; settings: for IC50: Homo sapiens, Pulmonary fibroblast, read-out: IC50, TGFβ-induced fibroblast differentiation; for αSMA (Fluorescence): TGFβ +
Experimental: Briefly, 20 000 cells per well were seeded in black 96 well collagen coated plates and incubate overnight (approximately 24 hours) to allow adherence. […] Cultures were then incubated for 48 hours. […] Separate controls were included for diluted cultures containing TGFβ1 or media alone. At the end of incubation, cells were fixed and stained for imaging and fluorescence plate reader quantitation. Parallel cultures were assessed for cytotoxicity using the MTS dye assay.

[4] = Intravenous push of pirfenidone, plasma and lung levels; type: in vivo; settings: mouse

In the case of `Cc1ccc(=O)n(-c2ccccc2)c1` [pirfenidone, 5-methyl-1-phenyl-2-(1H)-pyridone], the T1/2 beta ([1]; aerosol 110 mg RDD, lung tissue, from plasma T1/2, Rubino et al., 2009 fasted-state) is listed as 2.5 h, the T1/2 beta ([1]; aerosol 110 mg RDD, plasma, Rubino et al., 2009 fasted-state) is listed as 2.5 h and the T1/2 beta ([1]; aerosol 154 mg RDD, lung tissue, from plasma T1/2, Rubino et al., 2009 fasted-state) is listed as 2.5 h. The T1/2 beta ([1]; aerosol 154 mg RDD, plasma, Rubino et al., 2009 fasted-state) was 2.5 h, the T1/2 beta ([1]; aerosol 185 mg RDD, lung tissue, from plasma T1/2, Rubino et al., 2009 fasted-state) was 2.5 h and the T1/2 beta ([1]; aerosol 185 mg RDD, plasma, Rubino et al., 2009 fasted-state) was 2.5 h. The “AUC over 0-18 hours” value ([1]; oral 801 mg fasted-state) was 67700 ng·h/mL, the Cmax ([1]; oral 801 mg fasted-state) was 14.2 microgram/mL and the “AUC over 0-18 hours” value ([1]; oral 801 mg fed-state) was 58900 ng·h/mL. For the same compound, the Cmax ([1]; oral 801 mg fed-state) was 7.9 microgram/mL, the T1/2 beta ([1]; oral 801 mg fasted-state, lung tissue, from plasma T1/2, Rubino et al., 2009) was 2.5 h and the T1/2 beta ([1]; oral 801 mg fasted-state, plasma, Rubino et al., 2009) was 2.5 h. For the same compound, the T1/2 beta ([1]; oral 801 mg fed-state, lung tissue, from plasma T1/2, Rubino et al., 2009) was 2.4 h, the T1/2 beta ([1]; oral 801 mg fed-state, plasma, Rubino et al., 2009) was 2.4 h and the solubility ([2]; aqueous co-solvent/surfactant solvent system, pH 4.4, aqueous with cosolvent or surfactant or cyclodextrin, 4% Gly, 0.04% PS80, 96.0% citrate buffer (10 mM), pH 4.4) was 17.6 mg/mL (≈ 95 mM). For the same compound, the solubility ([2]; aqueous co-solvent/surfactant solvent system, pH 4.5, aqueous with cosolvent or surfactant or cyclodextrin, 4% EtOH, 0.04% PS80, 96.0% citrate buffer (10 mM), pH 4.5) was 21.9 mg/mL (≈ 118 mM), the solubility ([2]; aqueous co-solvent/surfactant solvent system, pH 4.5, aqueous with cosolvent or surfactant or cyclodextrin, 4% EtOH, 0.1% CPB, 95.9% citrate buffer (10 mM), pH 4.5) was 20.4 mg/mL (≈ 110 mM) and the solubility ([2]; aqueous co-solvent/surfactant solvent system, pH 4.5, aqueous with cosolvent or surfactant or cyclodextrin, 8% PG, 0.04% PS80, 92.0% citrate buffer (10 mM), pH 4.5) was 23.2 mg/mL (≈ 125 mM). The solubility ([2]; aqueous co-solvent/surfactant solvent system, pH 4.5, aqueous with cosolvent or surfactant or cyclodextrin, 8% PG, 0.1% CPB, 91.9% citrate buffer (10 mM), pH 4.5) was 21 mg/mL (≈ 113 mM), the solubility ([2]; aqueous co-solvent/surfactant solvent system, pH 4.6, aqueous with cosolvent or surfactant or cyclodextrin, 8% PG, 0.04% PS80, 92.0% water, pH 4.6) was 23.4 mg/mL (≈ 126 mM) and the solubility ([2]; aqueous co-solvent/surfactant solvent system, pH 4.7, aqueous with cosolvent or surfactant or cyclodextrin, 4% EtOH, 0.04% PS80, 96.0% water, pH 4.7) was 22.5 mg/mL (≈ 121 mM). For the same compound, the solubility ([2]; aqueous co-solvent/surfactant solvent system, pH 4.9, aqueous with cosolvent or surfactant or cyclodextrin, 4% EtOH, 0.1% CPB, 95.9% water, pH 4.9) was 20.2 mg/mL (≈ 109 mM), the solubility ([2]; aqueous co-solvent/surfactant solvent system, pH 4.9, aqueous with cosolvent or surfactant or cyclodextrin, 4% Gly, 0.04% PS80, 96.0% water, pH 4.9) was 20 mg/mL (≈ 108 mM) and the solubility ([2]; aqueous co-solvent/surfactant solvent system, pH 5, aqueous with cosolvent or surfactant or cyclodextrin, 8% PG, 0.1% CPB, 91.9% water, pH 5.0) was 22.3 mg/mL (≈ 120 mM). The solubility ([2]; aqueous co-solvent/surfactant solvent system, pH 5.8, aqueous with cosolvent or surfactant or cyclodextrin, 4% EtOH, 8% PG, 0.04% PS80, 88.0% water, pH 5.8) was 28.9 mg/mL (≈ 156 mM), the solubility ([2]; aqueous co-solvent/surfactant solvent system, pH 6.1, aqueous with cosolvent or surfactant or cyclodextrin, 4% EtOH, 0.1% CPB, 95.9% water, pH 6.1) was 23.9 mg/mL (≈ 129 mM) and the solubility ([2]; aqueous co-solvent/surfactant solvent system, pH 6.2, aqueous with cosolvent or surfactant or cyclodextrin, 0.1% CPB, 99.9% water, pH 6.2) was 20 mg/mL (≈ 108 mM). It also gave a solubility ([2]; aqueous co-solvent/surfactant solvent system, pH 6.2, aqueous with cosolvent or surfactant or cyclodextrin, 4% EtOH, 8% PG, 88.0% water, pH 6.2) of 30 mg/mL (≈ 162 mM), a solubility ([2]; aqueous co-solvent/surfactant solvent system, pH 6.2, aqueous with cosolvent or surfactant or cyclodextrin, 8% PG, 0.1% CPB, 91.9% water, pH 6.2) of 23.4 mg/mL (≈ 126 mM) and a solubility ([2]; aqueous co-solvent/surfactant solvent system, pH 6.5, aqueous with cosolvent or surfactant or cyclodextrin, 0.04% PS80, 100.0% water, pH 6.5) of 19.9 mg/mL (≈ 107 mM). It also gave a solubility ([2]; aqueous co-solvent/surfactant solvent system, pH 6.5, aqueous with cosolvent or surfactant or cyclodextrin, 4% Gly, 0.04% PS80, 96.0% water, pH 6.5) of 20.2 mg/mL (≈ 109 mM), a solubility ([2]; aqueous co-solvent/surfactant solvent system, pH 6.6, aqueous with cosolvent or surfactant or cyclodextrin, 4% EtOH, 8% PG, 0.04% PS80, 88.0% phosphate buffer (5 mM), pH 6.6) of 29.4 mg/mL (≈ 159 mM) and a solubility ([2]; aqueous co-solvent/surfactant solvent system, pH 6.6, aqueous with cosolvent or surfactant or cyclodextrin, 4% EtOH, 8% PG, 88.0% phosphate buffer (5 mM), pH 6.6) of 27.2 mg/mL (≈ 147 mM). It also gave a solubility ([2]; aqueous co-solvent/surfactant solvent system, pH 6.6, aqueous with cosolvent or surfactant or cyclodextrin, 8% EtOH, 0% PG, 92% phosphate buffer (5 mM), pH 6.6) of 26.7 mg/mL (≈ 144 mM), a solubility ([2]; aqueous co-solvent/surfactant solvent system, pH 6.6, aqueous with cosolvent or surfactant or cyclodextrin, 8% PG, 0.04% PS80, 92.0% water, pH 6.6) of 23.2 mg/mL (≈ 125 mM) and a solubility ([2]; aqueous co-solvent/surfactant solvent system, pH 6.7, aqueous with cosolvent or surfactant or cyclodextrin, 4% EtOH, 0.04% PS80, 96.0% water, pH 6.7) of 24.5 mg/mL (≈ 132 mM). For the same compound, the solubility ([2]; aqueous co-solvent/surfactant solvent system, pH 6.7, aqueous with cosolvent or surfactant or cyclodextrin, 8% EtOH, 12% PG, 80% phosphate buffer (5 mM), pH 6.7) was 37.7 mg/mL (≈ 204 mM), the solubility ([2]; aqueous co-solvent/surfactant solvent system, pH 6.8, aqueous with cosolvent or surfactant or cyclodextrin, 0% EtOH, 16% PG, 84% phosphate buffer (5 mM), pH 6.8) was 29.3 mg/mL (≈ 158 mM) and the solubility ([2]; aqueous co-solvent/surfactant solvent system, pH 6.8, aqueous with cosolvent or surfactant or cyclodextrin, 2% EtOH, 16% PG, 82% phosphate buffer (5 mM), pH 6.8) was 31 mg/mL (≈ 167 mM). For the same compound, the solubility ([2]; aqueous co-solvent/surfactant solvent system, pH 6.8, aqueous with cosolvent or surfactant or cyclodextrin, 8% EtOH, 4% PG, 88% phosphate buffer (5 mM), pH 6.8) was 30.4 mg/mL (≈ 164 mM), the solubility ([2]; aqueous co-solvent/surfactant solvent system, pH 6.8, aqueous with cosolvent or surfactant or cyclodextrin, 8% EtOH, 8% PG, 84% phosphate buffer (5 mM), pH 6.8) was 35 mg/mL (≈ 189 mM) and the solubility ([2]; aqueous co-solvent/surfactant solvent system, pH 6.8, aqueous with cosolvent or surfactant or cyclodextrin, 8% EtOH, 16% PG, 76% phosphate buffer (5 mM), pH 6.8) was 45.4 mg/mL (≈ 245 mM). It also gave a solubility ([2]; aqueous co-solvent/surfactant solvent system, pH 6.9, aqueous with cosolvent or surfactant or cyclodextrin, 4% EtOH, 16% PG, 80% phosphate buffer (5 mM), pH 6.9) of 36.8 mg/mL (≈ 199 mM), a solubility ([2]; aqueous co-solvent/surfactant solvent system, pH 6.9, aqueous with cosolvent or surfactant or cyclodextrin, 6% EtOH, 16% PG, 78% phosphate buffer (5 mM), pH 6.9) of 40.9 mg/mL (≈ 221 mM) and a solubility ([2]; aqueous co-solvent/surfactant solvent system, pH 7, aqueous with cosolvent or surfactant or cyclodextrin, 6% EtOH, 12% PG, 82.0% phosphate buffer (5 mM), pH 7.0) of 34.7 mg/mL (≈ 187 mM). It also gave a solubility ([2]; aqueous co-solvent/surfactant solvent system, pH 7, aqueous with cosolvent or surfactant or cyclodextrin, 8% EtOH, 16% PG, 76.0% phosphate buffer (5 mM), pH 7.0) of 43.7 mg/mL (≈ 236 mM), a solubility ([2]; citrate buffer with co-solvent, pH 4.4, aqueous buffer, 4% Gly, 96.0% citrate buffer (10 mM), pH 4.4) of 19.8 mg/mL (≈ 107 mM) and a solubility ([2]; citrate buffer with co-solvent, pH 4.4, aqueous with cosolvent or surfactant or cyclodextrin, 8% PG, 92.0% citrate buffer (10 mM), pH 4.4) of 23.2 mg/mL (≈ 125 mM). The solubility ([2]; citrate buffer with co-solvent, pH 4.5, aqueous buffer, 4% EtOH, 96.0% citrate buffer (10 mM), pH 4.5) was 22.3 mg/mL (≈ 120 mM), the solubility ([2]; citrate buffer with surfactant, pH 4.5, aqueous with cosolvent or surfactant or cyclodextrin, 0.04% PS80, 100.0% citrate buffer (10 mM), pH 4.5) was 19.1 mg/mL (≈ 103 mM) and the solubility ([2]; water with co-solvent, pH 4.8, water, 4% Gly, 96.0% water, pH 4.8) was 20.1 mg/mL (≈ 109 mM). It also gave a solubility ([2]; water with co-solvent, pH 5, aqueous with cosolvent or surfactant or cyclodextrin, 8% PG, 92.0% water, pH 5.0) of 24.3 mg/mL (≈ 131 mM), a solubility ([2]; water with co-solvent, pH 5, water, 4% EtOH, 96.0% water, pH 5.0) of 22.8 mg/mL (≈ 123 mM) and a solubility ([2]; water with co-solvent, pH 6.7, water, 4% Gly, 96.0% water, pH 6.7) of 20.1 mg/mL (≈ 109 mM). For the same compound, the solubility ([2]; water with co-solvent, pH 6.8, aqueous with cosolvent or surfactant or cyclodextrin, 8% PG, 92.0% water, pH 6.8) was 24.6 mg/mL (≈ 133 mM), the solubility ([2]; water with co-solvent, pH 6.9, water, 4% EtOH, 96.0% water, pH 6.9) was 24.3 mg/mL (≈ 131 mM) and the solubility ([2]; water with surfactant, pH 4.8, aqueous with cosolvent or surfactant or cyclodextrin, 0.04% PS80, 100.0% water, pH 4.8) was 8.3 mg/mL (≈ 44.8 mM). The IC50 ([3]; 48 h) was ~25 µg/mL (≈ 0.135 mM), the IC50 [3] was ~125 µg/mL (≈ 0.675 mM) and the “αSMA (Fluorescence)” value ([3]; Table 36, Long-term exposure (48 hours), pirfenidone 5 mcg/mL) was 4.72. For the same compound, the “αSMA (Fluorescence)” value ([3]; Table 36, Long-term exposure (48 hours), pirfenidone 25 mcg/mL) was 4.04, the “αSMA (Fluorescence)” value ([3]; Table 36, Long-term exposure (48 hours), pirfenidone 125 mcg/mL) was 3.15 and the “αSMA (Fluorescence)” value ([3]; Table 36, Long-term exposure (48 hours), pirfenidone 625 mcg/mL) was 2.47. The “αSMA (Fluorescence)” value ([3]; Table 36, Short-term exposure, pirfenidone 5 mcg/mL) was 6.76, the “αSMA (Fluorescence)” value ([3]; Table 36, Short-term exposure, pirfenidone 25 mcg/mL) was 5.34 and the “αSMA (Fluorescence)” value ([3]; Table 36, Short-term exposure, pirfenidone 625 mcg/mL) was 3.57. The “αSMA (Fluorescence)” value ([3]; Table 37 (broader dose-response), Short-term exposure, pirfenidone 1 mcg/mL) was 7.65, the “αSMA (Fluorescence)” value ([3]; Table 37 (broader dose-response), Short-term exposure, pirfenidone 10 mcg/mL) was 7.75 and the “αSMA (Fluorescence)” value ([3]; Table 37 (broader dose-response), Short-term exposure, pirfenidone 100 mcg/mL) was 5.61. The “αSMA (Fluorescence)” value ([3]; Table 37 (broader dose-response), Short-term exposure, pirfenidone 1000 mcg/mL) was 2.27, the “Lung Cmax” value ([4]; 40 mg/kg intravenous dose) was 30 mcg/gram wet tissue and the “pirfenidone in the lung tissue after subtracting blood content” value ([4]; 40 mg/kg intravenous dose, blood assumed 40% of wet lung weight) was “about 8 mcg/g”. For the same compound, the “wet lung half-life, longer than the plasma half-life” value ([4]; intravenous push) was “about 45%” and the Cmax ([4]; plasma, 40 mg/kg intravenous dose) was ~55 µg/mL.
